Read-outs that look alike come from different tables or passages of the source.
Assays:
[1] = target: T1, recombinant N-terminal MLH1 (residues 15-340) (Homo sapiens, UniProt P40692); test: Fluorescence Polarisation Assay for MLH1; assay type: binding; conditions: fluorescence polarisation probe displacement; 100 nM N-terminal MLH1, 5 nM probe compound
T1 construct: recombinant N-terminal MLH1 (residues 15-340)
T1 sequence (P40692 15-340): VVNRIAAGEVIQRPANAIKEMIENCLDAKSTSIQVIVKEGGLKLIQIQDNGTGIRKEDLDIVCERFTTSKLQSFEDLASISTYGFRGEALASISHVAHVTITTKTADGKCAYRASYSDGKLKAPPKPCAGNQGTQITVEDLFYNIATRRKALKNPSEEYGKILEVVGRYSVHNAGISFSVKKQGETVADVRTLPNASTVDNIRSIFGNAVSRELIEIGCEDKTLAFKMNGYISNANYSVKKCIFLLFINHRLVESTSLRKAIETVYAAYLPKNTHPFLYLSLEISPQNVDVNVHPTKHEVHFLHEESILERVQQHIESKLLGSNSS
Experimental: Fluorescence Polarisation Assay for MLH1
Test compounds, as 10 mM DMSO stocks, were dispensed into a 384-well Low Flange Black Flat Bottom Polystyrene Non-binding Surface plate (Corning®, item number 3575) using a Labcyte Echo acoustic liquid handler. Test compounds were added to wells in columns 1-22 whilst DMSO was added to wells in columns 23 and 24 in order to normalise the plate. 20 μL of a 2× solution (200 nM) of recombinant N-terminal MLH1 (residues 15-340) in assay buffer (25 mM HEPES, pH 7.5, 250 mM NaCl, 10 mM MgCl2, 0.01% Triton X-100, 5 mM dithiothreitol) was added to all wells in columns 1-23 and 20 μL assay buffer was added to all wells in column 24 using an E1-ClipTip pipette (ThermoFisher). Plates were centrifuged for 1 minute at 250×g and were incubated at room temperature for 30 minutes prior to the addition of 20 μL of 2× (10 nM) 5-((5-(4-((2-(2,4-dihydroxy-5-isopropylbenzoyl)isoindolin-5-yl)methyl)piperazin-1-yl)pentyl)carbamoyl)-2-(6-(dimethylamino)-3-(dimethyliminio)-3H-xanthen-9-yl)benzoate in assay buffer (prepared from a 1 mM DMSO stock) with an E1-ClipTip pipette (ThermoFisher). The final concentration of N-terminal MLH1 was 100 nM and the final concentration of the probe compound was 5 nM. Compound plates were centrifuged for 1 minute at 250×g for 1 minute and immediately read on a PheraStar FSX (fitted with 384-well aperture spoon and 590 675 675 FP optic module). The gain and focus were adjusted before each plate was read so that the polarisation of a no enzyme control (column 24) was equal to 35 mP. Data were normalised against the no inhibitor controls (column 23) and no enzyme controls (column 24).

[2] = target: T2, recombinant N-terminal PMS2 (residues 1-365) (Homo sapiens, UniProt P54278); test: Fluorescence Polarisation Assay for PMS2; assay type: binding; conditions: 10 nM N-terminal PMS2, 5 nM probe compound
T2 construct: recombinant N-terminal PMS2 (residues 1-365)
T2 sequence (P54278 1-365): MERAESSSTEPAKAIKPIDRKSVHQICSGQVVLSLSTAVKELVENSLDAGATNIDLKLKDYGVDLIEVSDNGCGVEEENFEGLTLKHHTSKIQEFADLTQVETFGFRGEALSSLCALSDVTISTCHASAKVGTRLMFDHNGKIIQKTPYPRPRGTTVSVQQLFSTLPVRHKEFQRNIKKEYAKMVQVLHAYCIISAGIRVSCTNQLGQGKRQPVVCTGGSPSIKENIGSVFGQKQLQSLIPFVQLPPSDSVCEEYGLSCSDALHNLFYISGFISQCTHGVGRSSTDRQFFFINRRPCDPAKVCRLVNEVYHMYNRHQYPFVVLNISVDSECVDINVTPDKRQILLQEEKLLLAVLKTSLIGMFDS
Experimental: Fluorescence Polarisation Assay for PMS2
For single point screening, test compounds were added to wells in columns 1-22 whilst DMSO was added to wells in columns 23 and 24 in order to normalise the plate. For potency determination, serial dilutions of test compounds were added to wells in columns 3-22 and DMSO volume was normalised across the plate.
20 μL assay buffer was added to all wells in columns 1 and 24 (column 24 only for single point screening) using a MultiDrop Combi (ThermoFisher). Plates were centrifuged for 1 minute at 250×g and were incubated at room temperature for 30 minutes prior to the addition of 20 μL of 2× (20 nM) of 5-((5-(4-((2-(2,4-dihydroxy-5-isopropylbenzoyl)isoindolin-5-yl)methyl)piperazin-1-yl)pentyl)carbamoyl)-2-(6-(dimethylamino)-3-(dimethyliminio)-3H-xanthen-9-yl)benzoate (referred to hereinafter as “probe compound”) in assay buffer (prepared from a 100 μM DMSO stock) with a MultiDrop Combi (ThermoFisher). The final concentration of N-terminal PMS2 was 10 nM and the final concentration of probe compound was 5 nM.
Compound plates were centrifuged for 1 minute at 250×g for 1 minute and were incubated at room temperature for 1 hour before being read on a PheraStar FSX (fitted with 384-well aperture spoon and 540 590 590 FP optic module). The gain and focus were adjusted before each plate was read so that the polarisation of a no enzyme control (column 24) was equal to 35 mP. Data were normalised against the no inhibitor controls (column 23) and no enzyme controls (column 24).

[3] = fluorescence polarisation probe displacement, read-out: PMS2 IC50

Compound	IC50 [1] [nM]	IC50 [2, 3] [nM]	IC50 ([2]; PMS2 IC50, fluorescence polarisation probe displacement) [nM]
CN(C)Cc1ccc2c(c1)CN(C(=O)c1c(O)cc(O)cc1OCc1ccccc1)C2 [Example 11, (2-(Benzyloxy)-4,6-dihydroxyphenyl)(5-((dimethylamino)methyl)isoindolin-2-yl)methanone]	1000 to 10000	1000 to 10000	–
O=C(c1c(O)cc(O)cc1OCc1ccccc1)N1Cc2ccc(CN3CCOCC3)cc2C1 [Example 12, (2-(Benzyloxy)-4,6-dihydroxyphenyl)(5-(morpholinomethyl)isoindolin-2-yl)methanone]	< 1000	< 1000	–
O=C(c1c(O)cc(O)cc1OCc1ccccc1)N1Cc2ccccc2C1CO (centres unmarked) [Example 13, (2-(Benzyloxy)-4,6-dihydroxyphenyl)(1-(hydroxymethyl)isoindolin-2-yl)methanone]	< 1000	1000 to 10000	–
O=C(c1c(O)cc(O)cc1OCc1ccccc1)N1Cc2cccc(NC3CCCOC3)c2C1 (centres unmarked) [Example 14, (2-(Benzyloxy)-4,6-dihydroxyphenyl)(4-((tetrahydro-2H-pyran-3-yl)amino)isoindolin-2-yl)methanone]	< 1000	1000 to 10000	–
O=C(c1c(O)cc(O)cc1OCc1ccccc1)N1Cc2cccc(NC3CCOCC3)c2C1 [Example 15, (2-(Benzyloxy)-4,6-dihydroxyphenyl)(4-((tetrahydro-2H-pyran-4-yl)amino)isoindolin-2-yl)methanone]	< 1000	1000 to 10000	–
COc1cc(O)cc(O)c1C(=O)N1Cc2cccc(NC3CCOC3)c2C1 (centres unmarked) [Example 16, (2,4-Dihydroxy-6-methoxyphenyl)(4-((tetrahydrofuran-3-yl)amino)isoindolin-2-yl)methanone]	1000 to 10000	> 10000	–
CCOc1cc(O)cc(O)c1C(=O)N1Cc2cccc(NC3CCOC3)c2C1 (centres unmarked) [Example 17, (2-Ethoxy-4,6-dihydroxyphenyl)(4-((tetrahydrofuran-3-yl)amino)isoindolin-2-yl)methanone]	< 1000	–	> 10000
CN1CC(Nc2cccc3c2CN(C(=O)c2c(O)cc(O)cc2OCc2ccccc2)C3)CC1=O (centres unmarked) [Example 18, 4-((2-(2-(Benzyloxy)-4,6-dihydroxybenzoyl)isoindolin-4-yl)amino)-1-methylpyrrolidin-2-one]	< 1000	1000 to 10000	–
O=C(c1c(O)cc(O)cc1OCc1ccccc1)N1Cc2cccc(Nc3cncnc3)c2C1 [Example 19, (2-(Benzyloxy)-4,6-dihydroxyphenyl)(4-(pyrimidin-5-ylamino)isoindolin-2-yl)methanone]	< 1000	< 1000	–
O=C(c1c(O)cc(O)cc1OCc1ccccc1)N1Cc2cccc(NCc3cocn3)c2C1 [Example 20, (2-(Benzyloxy)-4,6-dihydroxyphenyl)(4-((oxazol-4-ylmethyl)amino)isoindolin-2-yl)methanone]	< 1000	1000 to 10000	–
Cn1cc(Nc2cccc3c2CN(C(=O)c2c(O)cc(O)cc2OCc2ccccc2)C3)cn1 [Example 21, (2-(Benzyloxy)-4,6-dihydroxyphenyl)(4-((1-methyl-1H-pyrazol-4-yl)amino)isoindolin-2-yl)methanone]	1000 to 10000	1000 to 10000	–
O=C(c1c(O)cc(O)cc1OCc1ccccc1)N1Cc2cccc(N[C@H]3CCOC3)c2C1 [Example 22, (S)-(2-(Benzyloxy)-4,6-dihydroxyphenyl)(4-((tetrahydrofuran-3-yl)amino)isoindolin-2-yl)methanone]	< 1000	< 1000	–
O=C(c1c(O)cc(O)cc1OCc1ccccc1)N1Cc2cccc(N[C@@H]3CCOC3)c2C1 [Example 23, (R)-(2-(Benzyloxy)-4,6-dihydroxyphenyl)(4-((tetrahydrofuran-3-yl)amino)isoindolin-2-yl)methanone]	< 1000	1000 to 10000	–
Cc1c[nH]c(=O)cc1Nc1cccc2c1CN(C(=O)c1c(O)cc(O)cc1OCc1ccccc1)C2 [Example 24, 4-((2-(2-(benzyloxy)-4,6-dihydroxybenzoyl)isoindolin-4-yl)amino)-5-methylpyridin-2(1H)-one]	1000 to 10000	1000 to 10000	–
O=C(c1c(O)cc(O)cc1OCC1CC1)N1Cc2cccc(NC3CCOC3)c2C1 (centres unmarked) [Example 25, (2-(Cyclopropylmethoxy)-4,6-dihydroxyphenyl)(4-((tetrahydrofuran-3-yl)amino)isoindolin-2-yl)methanone]	< 1000	1000 to 10000	–
O=C(c1c(O)cc(O)cc1OCC1CCCCC1)N1Cc2cccc(NC3CCOC3)c2C1 (centres unmarked) [Example 26, (2-(cyclohexylmethoxy)-4,6-dihydroxyphenyl)(4-((tetrahydrofuran-3-yl)amino)isoindolin-2-yl)methanone]	1000 to 10000	1000 to 10000	–
O=C(c1c(O)cc(O)cc1OCc1ccccc1)N1CCc2c(cccc2NC2CCOC2)C1 (centres unmarked) [Example 27, (2-(Benzyloxy)-4,6-dihydroxyphenyl)(5-((tetrahydrofuran-3-yl)amino)-3,4-dihydroisoquinolin-2(1H)-yl)methanone]	1000 to 10000	1000 to 10000	–
O=C(c1c(O)cc(O)cc1OCC1CCCCC1)N1CCc2cccc(NC3CCOC3)c2C1 (centres unmarked) [Example 28, (2-(Cyclohexylmethoxy)-4,6-dihydroxyphenyl)(8-((tetrahydrofuran-3-yl)amino)-3,4-dihydroisoquinolin-2(1H)-yl)methanone]	1000 to 10000	1000 to 10000	–
CNc1cccc2c1CN(C(=O)c1c(O)cc(O)cc1OCc1ccccc1)C2 [Example 29, (2-(Benzyloxy)-4,6-dihydroxyphenyl)(4-(methylamino)isoindolin-2-yl)methanone]	1000 to 10000	1000 to 10000	–
O=C(c1c(O)cc(O)cc1OCc1ccccc1)N1Cc2cccc(NC3COCC(F)(F)C3)c2C1 (centres unmarked) [Example 32, (2-(Benzyloxy)-4,6-dihydroxyphenyl)(4-((5,5-difluorotetrahydro-2H-pyran-3-yl)amino)isoindolin-2-yl)methanone]	1000 to 10000	1000 to 10000	–
O=C(c1c(O)cc(O)cc1OCc1ccccc1)N1Cc2cccc(NCC3CCCO3)c2C1 (centres unmarked) [Example 33, (2-(Benzyloxy)-4,6-dihydroxyphenyl)(4-(((tetrahydrofuran-2-yl)methyl)amino)isoindolin-2-yl)methanone]	< 1000	1000 to 10000	–
O=C(c1c(O)cc(O)cc1OCc1ccccc1)N1Cc2cccc(Nc3cn[nH]c3)c2C1 [Example 34, (4-((1H-Pyrazol-4-yl)amino)isoindolin-2-yl)(2-(benzyloxy)-4,6-dihydroxyphenyl)methanone]	< 1000	1000 to 10000	–

Source: patent US20240293392A1, “INHIBITOR COMPOUNDS” (NeoPhore Limited, priority 2021, published 2024)
